# Reference: patent US20130053430A1, “MODULATION OF CETP EXPRESSION” (Isis Pharmaceuticals, Inc., priority 2010, published 2013)
# e = 2'-O-(2-methoxyethyl) (MOE); d = 2'-deoxy (DNA)
# Tests used:
# human CETP mRNA = assay: Antisense inhibition of human CETP mRNA in SW872 liposarcoma cells (Example 1); format: cell-based; details: 150 nM antisense oligonucleotide, lipofectin, ~24 hours, relative to untreated control cells
# How it was run: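 SW872 cells transfected (lipofectin) with 150 nM 5-10-5 MOE gapmer (phosphorothioate, 5-methylcytosine). After about 24 h, CETP mRNA measured by qRT-PCR, normalized to GAPDH; values are % inhibition versus untreated cells.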
# CETP protein = assay: Plasma CETP protein by ELISA, normal or cholesterol-enriched chow (Example 6); format: in vivo, human; details: 50 mg/kg s.c. twice per week
# Procedure: (§1) The normal chow-fed mice were divided into three treatment groups. The cholesterol-enriched chow-fed mice were divided into three treatment groups. […] One chow-fed group and one cholesterol-enriched chow-fed group received subcutaneous injections of saline twice weekly for 6 weeks. The saline-injected groups served as the control groups to which the corresponding oligonucleotide-treated groups were compared.
# Plasma levels of CETP protein were measured by ELISA (Alpco, N.H.). […] The results are expressed as percentage inhibition compared to the PBS control.
# [1] = Organ weights (Example 6); format: in vivo, mice; details: 50 mg/kg s.c. twice per week for 6 weeks, end of study
# Excerpt: as §1
# ApoA1 = assay: Liver ApoA1 mRNA expression (Example 9); format: in vivo, mice; details: s.c. 6 weeks; for Percent inhibition of liver mRNA expression, ApoA1: percentage increase or decrease compared to PBS control
# Procedure: Another group received subcutaneous injections of control oligonucleotide ISIS 141923 at a dose of 50 mg/kg/week for 6 weeks. One group of mice received subcutaneous injections of PBS for 6 weeks. The PBS-injected group served as the control group to which treatment groups were compared.
# Liver RNA was isolated for real-time PCR analysis of ABCA1, ApoAI, and SR-B1. ATP-binding cassette transporter ABCA1 (member 1 of human transporter sub-family ABCA), also known as the cholesterol efflux regulatory protein (CERP) is a protein which in humans is encoded by the ABCA1 gene (Luciani, M. F. et al., Genomics. 1994. 21: 150-9). This transporter is a major regulator of cellular cholesterol and phospholipid homeostasis. Apolipoprotein A-I is a protein that in humans is encoded by the APOA1 gene (Breslow, J. L. et al., Proc. Natl. Acad. Sci. USA 1982. 79: 6861-5). Apolipoprotein A-I is the major protein component of HDL in plasma. The protein promotes cholesterol efflux from tissues to the liver for excretion. Scavenger receptor class B, type I (SR-BI) is an integral membrane protein found in numerous cell types/tissues, including the liver and adrenal (Acton, S. L. et al., J. Biol. Chem. 1994. 269: 21003-21009). It is best known for its role in facilitating the uptake of cholesteryl esters from high-density lipoproteins in the liver. Therefore, all three genes have a role in HDL regulation.
# The primer probe set RTS1204 (forward sequence […], designated herein as SEQ ID NO: 122, reverse sequence […], designated herein as SEQ ID NO: 123, probe sequence AGGCCCAGACCTGTAAAGGCGAAGX, with X a fluorophore, designated herein as SEQ ID NO: 124) was used to measure abca1 levels. The primer probe set RTS14737 (forward sequence […], designated herein as SEQ ID NO: 125, reverse sequence […], designated herein as SEQ ID NO: 126, probe sequence CTGCAGGAACGGCTGGGCCCX, with X a fluorophore, designated herein as SEQ ID NO: 127) was used to measure apoA1 levels. The primer probe set mSRB-1 (forward sequence […], designated herein as SEQ ID NO: 128, reverse sequence ATGCGACTTGTCAGGCTGG, designated herein as SEQ ID NO: 129, probe sequence CGTGGAGAACCGCAGCCTCCATTX, with X a fluorophore, designated herein as SEQ ID NO: 130) was used to measure sr-b1 levels. The results are presented in Table 44 as percentage increase or decrease in the respective expression levels compared to the PBS control. Both primer probe sets produced similar results. The RNA expression levels were normalized to murine Cyclophilin. Treatment with ISIS 349517 caused an increase in ApoA1 and SR-B1 levels.
Substance,% inhibition (human CETP mRNA) [%],"Percent inhibition of plasma CETP protein levels (CETP protein; Cholesterol chow, Week 3) [%]","Percent inhibition of plasma CETP protein levels (CETP protein; Cholesterol chow, Week 6) [%]","Percent inhibition of plasma CETP protein levels (CETP protein; Normal chow, Week 3) [%]","Percent inhibition of plasma CETP protein levels (CETP protein; Normal chow, Week 6) [%]",Kidney weight ([1]; Cholesterol chow) [mg],Liver weight ([1]; Cholesterol chow) [g],Spleen weight ([1]; Cholesterol chow) [mg],Kidney weight ([1]; Normal chow) [mg],Liver weight ([1]; Normal chow) [g],Spleen weight ([1]; Normal chow) [mg],"Percent inhibition of liver mRNA expression, ApoA1 (ApoA1; Dose 50 mg/kg/wk)","ApoA1 levels (liver mRNA) (ApoA1; huCETP transgenic mice, Western diet)","Percent inhibition of liver mRNA expression, ApoA1 (ApoA1; Dose 1.5 mg/kg/wk) [%]","Percent inhibition of liver mRNA expression, ApoA1 (ApoA1; Dose 5 mg/kg/wk) [%]","Percent inhibition of liver mRNA expression, ApoA1 (ApoA1; Dose 15 mg/kg/wk)"
"ISIS 349511: 5-10-5 MOE gapmer CCCGACCTCCTTGGAGACTT (sugars from the 5' end e5 d10 e5, backbone and methylation of C not given here)",66,89,85,81,85,305,1.4,80,248,1.0,74,,,,,
"ISIS 141923: CCTTCCCTGAAGGTTCCTCC, 5-10-5 MOE gapmer, a control oligonucleotide which has no known murine target (sugars from the 5' end e5 d10 e5, backbone and methylation of C not given here) [reference compound]",,,,,,,,,,,,−50%,,,,
"ISIS 349517: 5-10-5 MOE gapmer CAGCACTTTAATGCCAGTGG (sugars from the 5' end e5 d10 e5, backbone and methylation of C not given here)",100,97,96,95,91,317,1.8,93,279,1.6,113,+136%,increase,−34,−13,+52%
